Values after ≈ are worked out from the molar mass of the structure shown.
Legend:
[1] = system: Listeria monocytogenes (ATCC 35152); assay: Disc diffusion assay; format: cell-based; details: for Inhibition zones of isolated acetogenins (in words): isolated molecules at 15 μg disc^−1, 37° C., 24 h; for Potency relative to Mirenat® in disc diffusion: 15 μg disc^−1 vs Mirenat® at 15 μg disc^−1 LAE
Method: Listeria monocytogenes (ATCC 35152) was acquired from the American Type Culture Collection (Manassas, Va., USA). For experimentation, frozen stocks were first activated in Brain Heart Infusion (BHI) broth (Becton, Dickinson and Co., Franklin Lakes, N.J., USA) for 16-18 h at 37° C. A sub-culture was prepared under the same growth conditions to 3⁄4 log phase (6-7 h). At this stage, cells were adjusted with BHI to an initial optical density (OD) at 600 nm of 0.15, which corresponded to 8×10^6 CFU mL^-1 and served as the inoculum for the following antimicrobial assays. Aliquots (100 μL) of the cell suspension described above were evenly spread with a sterile plastic rod on the surface of agar plates. Sterile filter paper disks (Whatman No. 1, 6 mm) were impregnated with aliquots (5 μL) of the antimicrobial solution (EAE, Avosafe® and isolated acetogenins) freshly prepared at 3000 ppm in 96% food grade ethanol to delivered 15 μg disc^-1 of active compounds. All solutions were sonicated for 5 min (Branson 2510, Branson Ultrasonics, Danbury, Conn., USA) and vortexed for 30 s before dispensing the corresponding volumes. The disks were air-dried for approximately 1 h in a biological safety cabinet before placed into the inoculated plate. Antimicrobials were tested in triplicate, one disk per plate to account for plate variability. Vehicle and positive controls were also incorporated into each plate and contemplated 5 μl of 96% ethanol and […]® at 3000 ppm LAE in sterile deionized water. Each plate contained at most six disks evenly distributed. Plates were incubated for 24 h at 37° C. After, diameters of inhibition zones were measured to the nearest millimeter.

[2] = system: Listeria monocytogenes (ATCC 35152); assay: Minimum inhibitory concentration (MIC) and minimum bactericidal concentration (MBC), broth dilution; format: cell-based; details: 37° C.; for MBC/MIC ratio: ≤4 bactericidal, >4 bacteriostatic; for MBC / MIC: Listeria monocytogenes, ATCC35152, 24 h
Method: Listeria monocytogenes (ATCC 35152) was acquired from the American Type Culture Collection (Manassas, Va., USA). For experimentation, frozen stocks were first activated in Brain Heart Infusion (BHI) broth (Becton, Dickinson and Co., Franklin Lakes, N.J., USA) for 16-18 h at 37° C. A sub-culture was prepared under the same growth conditions to ¾ log phase (6-7 h). At this stage, cells were adjusted with BHI to an initial optical density (OD) at 600 nm of 0.15, which corresponded to 8×10^6 CFU mL^−1 and served as the inoculum for the following antimicrobial assays.
Stock solutions (25000-5000 ppm) of EAE, Avosafe® and isolated molecules were prepared in ≥99.5% food-grade propylene glycol (PG) (Sigma Aldrich, St. Louis, Mo., USA) and stored in brown vials at −80° C. Working solutions in culture media were prepared from room temperature acclimatized stock solutions that were sonicated (5 min) and vortexed (30 s) as described above. Culture medium was adjusted to 4% w/v PG to account for the effect of the vehicle in all concentrations tested and sets of experiments. Prior tests were conducted to confirm that 4% PG had no effect on growth. Serial 2-fold dilutions of samples, in a range of concentrations from 125 to 0.98 ppm, were prepared in sterile 96-well clear polystyrene microplates (Cat. No. 3370, Corning, Corning, N.Y., USA) or disposable test tubes (VWR, Radnor, Pa., USA) to a final volume of 300 μL or 1 mL, respectively. The experimentation scale was determined by the amount of test product available. Each well or tube was inoculated with 10% v/v liquid phase of the cell suspension (OD600 nm 0.15) as previously described. A growth control (no antimicrobial added), an aseptic control (uninoculated), and a positive control (Mirenat®) were also examined. After 24 h at 37° C., the MIC was defined as the lowest concentration at which no visual growth was assessed by turbidity (Levison, M. E., “Pharmacodynamics of Antimicrobial Drugs,” Infect. Dis. Clin. North. Am. 18(3):451-65 (2004), which is hereby incorporated by reference in its entirety). […] Then, the pellet was resuspended in antimicrobial-free medium and incubated for 24 h at 37° C. The MBC was defined as the lowest concentration showing no growth (Levison, M. E., “Pharmacodynamics of Antimicrobial Drugs,” Infect. Dis. Clin. North. Am. 18(3):451-65 (2004), which is hereby incorporated by reference in its entirety). All tests were independently replicated (n=3) and performed with technical triplicates.

[3] = Effect of thermal processing and storage on acetogenins concentration in sausages; format: physicochemical; details: sausages with 10,000 ppm Avosafe®, cooking and pasteurization
Text: Effect of thermal processing and storage on acetogenins concentration. Acetogenins in sausages (Treatment A: un-cooked, day 0 and 90) were extracted and quantified as reported by Salinas-Salazar et al, “Inhibitory Activity of Avocado Seed Fatty Acid Derivatives (Acetogenins) Against Listeria Monocytogenes” J Food Sci 82: 134-44 (2016), which is hereby incorporated by reference in its entirety, with some modifications. Three grams (3 g) of sample were homogenized with acetone (1:5, w/v) using an Ultra-Turrax T25 homogenizer (IKA Works, Willmington, N.C., USA.) at 11000 rpm for 3 min, sonicated for 5 min, and centrifuged at 3600 rpm for 6 min (5° C.). Supernatants were collected and the precipitated material was extracted again two times, as mentioned above. After, supernatants were mixed and the solvent was evaporated at 35° C. using a rotary evaporator (Büchi R-210, Büchi Labortechnik AG, Switzerland) under high vacuum (22 in Hg). Residue was partitioned in 10 mL hexane:methanol (1:1). After 30 s of vortex, phases were separated by centrifugation (4000 rpm, 10 min) and the lower phase (methanol) was recovered and washed two more times with hexane, taken to dryness under nitrogen gas, resuspended in 1 mL isopropanol and passed through a 0.45 μm PTFE filter prior to HPLC injection. Agilent HPLC systems (Santa Clara, Calif., USA) 1260 Infinity series coupled to a G4212B photodiode array detector (PDA) and an evaporative light scattering detector G4218A was used. The PDA detector was set at 220 and 208 nm (Rodríguez-López, “A Targeted Metabolomics Approach to Characterize Acetogenin Profiles in Avocado Fruit (Persea americana Mill.)” RSC Adv 5: 106019-29 (2015), which is hereby incorporated by reference in its entirety).

[4] = system: C. sporogenes; details: cited from earlier work
[5] = lactating mice; cited from earlier work
[6] = dose of 100 mg kg^−1 of body weight; cited from earlier work

C#CCC/C=C/CCCCCCC[C@H](O)CC(O)COC(C)=O (stereo in doubt) [AcO-avocadenyne, 1-acetoxy-2,4-dihydroxy-heptadec-12-en-16-yne]
Antimicrobial activity relative to AcO-avocadene ([1]; 15 μg disc^−1, FIG. 4): 4 times
MBC/MIC ratio [2]: 2
MBC [2]: 31.2 µg/mL (≈ 96.2 µM)
MIC [2]: 15.6 µg/mL (≈ 48.1 µM)

C=CCCCCCCCCCCC[C@H](O)C[C@H](O)COC(C)=O [AcO-avocadene, (2S,4S)-1-acetoxy-2,4-dihydroxy-n-heptadeca-16-ene]
Inhibition zones of isolated acetogenins (in words) [1]: least potent
Processing losses compared to unprocessed control (in words) [3]: no statistically significant

C=CCCCCCCCCCC=CC(O)CC(O)COC(C)=O (stereo not drawn) [AcO-avocadiene A, 1-Acetoxy-2,4-dihydroxy-heptadeca-5,16-diene]
Inhibition zones of isolated acetogenins (in words) [1]: did not produce inhibition zones
Processing losses compared to unprocessed control (in words) [3]: no statistically significant

C#CCCCCCCCCCCCC(O)CC(O)COC(C)=O (stereo not drawn) [AcO-avocadyne, 1-acetoxy-2,4-dihydroxy-heptadec-16-yne]
Inhibition zones of isolated acetogenins (in words) [1]: did not produce inhibition zones

CCCCC/C=C\C/C=C\CCCCC/C=C/C(=O)C[C@@H](O)COC(C)=O [Persenone A, (2R,5E,12Z,15Z)-1-acetoxy-2-hydroxy-4-oxoheneicosa-5,12,15-triene]
Potency relative to Mirenat® in disc diffusion [1]: around 3 fold
Inhibition zones of isolated acetogenins (in words) [1]: highest inhibition zones
MBC/MIC ratio [2]: 2
MBC [2]: 15.6 µg/mL (≈ 41.2 µM)
MIC [2]: 7.8 µg/mL (≈ 20.6 µM)
Processing losses compared to unprocessed control (in words) [3]: no statistically significant

CCCCCCCCCCCCC/C=C/C(=O)C[C@@H](O)COC(C)=O [Persenone B, (5E)-1-acetoxy-2-hydroxy-4-oxononadeca-5-ene]
Processing losses compared to unprocessed control (in words) [3]: no statistically significant

CC/C=C/CCCCCCCCC/C=C/C(=O)C[C@@H](O)COC(C)=O [Persenone C, (2R,5E,16E)-1-acetoxy-2-hydroxy-4-oxononadeca-5,16-diene]
Potency relative to Mirenat® in disc diffusion [1]: around 3 fold
Inhibition zones of isolated acetogenins (in words) [1]: highest inhibition zones

CCCCC/C=C\C/C=C\CCCCCCCC(=O)C[C@@H](O)COC(C)=O [Persin, (2R,12Z,15Z)-1-acetoxy-2-hydroxy-4-oxoheneicosa-12,15-diene]
Antimicrobial activity against C. sporogenes (in words) [4]: minimal
Toxic acute doses [5]: 60-100 mg kg^−1 body weight
Effect in liver injury (in words) [6]: protective effect
